pIC50: −log10 of the molar value. Read-outs that look alike come from different tables or passages of the source.
Columns and labels:
[1] = tested on: ATR-driven phosphorylation of Chk1 kinase at Serine 345 in HT-29 colorectal adenocarcinoma cells; assay: pCHK1 cellular assay (CHK1 p-Ser345 AlphaScreen SureFire); assay type: cell-based; conditions: 4-nitroquinoline N-oxide 12 uM, read-out: Cell IC50 (pCHK1 IC50 values)
Experimental: Inhibitors of ATR kinase are effective at inhibiting the ATR-driven phosphorylation of the downstream target Chk1 kinase at Serine 345, following the addition of 4-nitroquinoline N-oxide, a chemical used to induce DNA damage. Cellular IC50 for the inhibitors of ATR described herein were measured in HT-29 colorectal adenocarcinoma cells. HT-29 cells were routinely maintained in McCoy's 5A media (ATCC Catalog #30-2007) supplemented with 10% fetal bovine serum (Sigma Catalog #F2442) and 1× Penicillin-Streptomycin (Gibco Catalog #15140-122) using a humidified incubator (37° C., 5% CO2, and ambient O2).
In preparation for the CHK1 (p-Ser345) ALPHASCREEN® SUREFIRE® assay, cells were harvested and resuspended in McCoy's 5A media supplemented with 10% fetal bovine serum and 1× Penicillin-Streptomycin. Cells were seeded onto a 384-well black CELLSTAR® Tissue Culture Plate (VWR Catalog #89085-314) at a density of 13,000 cells/well in a volume of 40 uL. The microplate was incubated overnight (approximately 20 hours) at 37° C. with 5% CO2 and ambient O2. Stock solutions of the test compounds were prepared in 100% DMSO (Sigma, Catalog #D2650) and serially diluted 1:3 using 100% DMSO. Compounds were additionally diluted 1:33 in culture medium, and 10 ul/well were transferred to the tissue culture plate. Following the compound addition the microplate was incubated at 37° C. for 90 minutes. 10 uL of 4-nitroquinoline N-oxide (Sigma Aldrich Catalog #N8141-1G) diluted in media (final concentration 12 uM) were added to the tissue culture plate followed by a 120 minute incubation at 37° C. The cells were then washed with PBS and lysed using 10 uL/well SUREFIRE® Kit lysis buffer diluted to 1× in water (PerkinElmer Catalog #TGRCHK1S50K), with mixing on an orbital shaker at 500 rpm for 20 min at RT. Lysates were frozen at −20° C. overnight.
4 uL/well of lysate was then transferred from the tissue culture plate to a 384-well, white, low volume, PROXIPLATE™ (PerkinElmer Catalog #600828). 5 uL/well of the acceptor bead solution, prepared by diluting SUREFIRE® Kit activation buffer (PerkinElmer Catalog #TGRCHK1S50K) and ALPHASCREEN® Protein A acceptor beads (PerkinElmer Catalog #6760617R) in SUREFIRE® Kit reaction buffer (PerkinElmer Catalog #TGRCHK1S50K), were added to the lysates under subdued light and incubated at room temperature for 120 min. 2 uL/well of the donor bead solution, prepared by diluting ALPHASCREEN® Streptavidin donor beads (PerkinElmer Catalog #6760617R) in SUREFIRE® Kit dilution buffer (PerkinElmer Catalog #TGRCHK1S50K), were added under subdued light and incubated at room temperature for an addition 120 minutes. The pCHK1 ALPHASCREEN® signal was measured using an ENVISION® plate reader (PerkinElmer). IC50 values were calculated using a four-parameter logistic curve fit using Genedata Screener software. Percent of control for each compound concentration was calculated by the following formula: 100*(Compound−Min)/(Max−Min) where “Max” is the high control, DMSO, and “Min” is the low control, 5 uM ATR inhibitor.

ATR/ATRIP complex = ATR/ATRIP complex (Homo sapiens (Human), UniProt Q13535); assay: ATR/ATRIP enzymatic assay (Caliper-based); assay type: biochemical; conditions: FAM-labeled RAD17 peptide, ATP
Chain of ATR/ATRIP complex (Q13535 whole entry): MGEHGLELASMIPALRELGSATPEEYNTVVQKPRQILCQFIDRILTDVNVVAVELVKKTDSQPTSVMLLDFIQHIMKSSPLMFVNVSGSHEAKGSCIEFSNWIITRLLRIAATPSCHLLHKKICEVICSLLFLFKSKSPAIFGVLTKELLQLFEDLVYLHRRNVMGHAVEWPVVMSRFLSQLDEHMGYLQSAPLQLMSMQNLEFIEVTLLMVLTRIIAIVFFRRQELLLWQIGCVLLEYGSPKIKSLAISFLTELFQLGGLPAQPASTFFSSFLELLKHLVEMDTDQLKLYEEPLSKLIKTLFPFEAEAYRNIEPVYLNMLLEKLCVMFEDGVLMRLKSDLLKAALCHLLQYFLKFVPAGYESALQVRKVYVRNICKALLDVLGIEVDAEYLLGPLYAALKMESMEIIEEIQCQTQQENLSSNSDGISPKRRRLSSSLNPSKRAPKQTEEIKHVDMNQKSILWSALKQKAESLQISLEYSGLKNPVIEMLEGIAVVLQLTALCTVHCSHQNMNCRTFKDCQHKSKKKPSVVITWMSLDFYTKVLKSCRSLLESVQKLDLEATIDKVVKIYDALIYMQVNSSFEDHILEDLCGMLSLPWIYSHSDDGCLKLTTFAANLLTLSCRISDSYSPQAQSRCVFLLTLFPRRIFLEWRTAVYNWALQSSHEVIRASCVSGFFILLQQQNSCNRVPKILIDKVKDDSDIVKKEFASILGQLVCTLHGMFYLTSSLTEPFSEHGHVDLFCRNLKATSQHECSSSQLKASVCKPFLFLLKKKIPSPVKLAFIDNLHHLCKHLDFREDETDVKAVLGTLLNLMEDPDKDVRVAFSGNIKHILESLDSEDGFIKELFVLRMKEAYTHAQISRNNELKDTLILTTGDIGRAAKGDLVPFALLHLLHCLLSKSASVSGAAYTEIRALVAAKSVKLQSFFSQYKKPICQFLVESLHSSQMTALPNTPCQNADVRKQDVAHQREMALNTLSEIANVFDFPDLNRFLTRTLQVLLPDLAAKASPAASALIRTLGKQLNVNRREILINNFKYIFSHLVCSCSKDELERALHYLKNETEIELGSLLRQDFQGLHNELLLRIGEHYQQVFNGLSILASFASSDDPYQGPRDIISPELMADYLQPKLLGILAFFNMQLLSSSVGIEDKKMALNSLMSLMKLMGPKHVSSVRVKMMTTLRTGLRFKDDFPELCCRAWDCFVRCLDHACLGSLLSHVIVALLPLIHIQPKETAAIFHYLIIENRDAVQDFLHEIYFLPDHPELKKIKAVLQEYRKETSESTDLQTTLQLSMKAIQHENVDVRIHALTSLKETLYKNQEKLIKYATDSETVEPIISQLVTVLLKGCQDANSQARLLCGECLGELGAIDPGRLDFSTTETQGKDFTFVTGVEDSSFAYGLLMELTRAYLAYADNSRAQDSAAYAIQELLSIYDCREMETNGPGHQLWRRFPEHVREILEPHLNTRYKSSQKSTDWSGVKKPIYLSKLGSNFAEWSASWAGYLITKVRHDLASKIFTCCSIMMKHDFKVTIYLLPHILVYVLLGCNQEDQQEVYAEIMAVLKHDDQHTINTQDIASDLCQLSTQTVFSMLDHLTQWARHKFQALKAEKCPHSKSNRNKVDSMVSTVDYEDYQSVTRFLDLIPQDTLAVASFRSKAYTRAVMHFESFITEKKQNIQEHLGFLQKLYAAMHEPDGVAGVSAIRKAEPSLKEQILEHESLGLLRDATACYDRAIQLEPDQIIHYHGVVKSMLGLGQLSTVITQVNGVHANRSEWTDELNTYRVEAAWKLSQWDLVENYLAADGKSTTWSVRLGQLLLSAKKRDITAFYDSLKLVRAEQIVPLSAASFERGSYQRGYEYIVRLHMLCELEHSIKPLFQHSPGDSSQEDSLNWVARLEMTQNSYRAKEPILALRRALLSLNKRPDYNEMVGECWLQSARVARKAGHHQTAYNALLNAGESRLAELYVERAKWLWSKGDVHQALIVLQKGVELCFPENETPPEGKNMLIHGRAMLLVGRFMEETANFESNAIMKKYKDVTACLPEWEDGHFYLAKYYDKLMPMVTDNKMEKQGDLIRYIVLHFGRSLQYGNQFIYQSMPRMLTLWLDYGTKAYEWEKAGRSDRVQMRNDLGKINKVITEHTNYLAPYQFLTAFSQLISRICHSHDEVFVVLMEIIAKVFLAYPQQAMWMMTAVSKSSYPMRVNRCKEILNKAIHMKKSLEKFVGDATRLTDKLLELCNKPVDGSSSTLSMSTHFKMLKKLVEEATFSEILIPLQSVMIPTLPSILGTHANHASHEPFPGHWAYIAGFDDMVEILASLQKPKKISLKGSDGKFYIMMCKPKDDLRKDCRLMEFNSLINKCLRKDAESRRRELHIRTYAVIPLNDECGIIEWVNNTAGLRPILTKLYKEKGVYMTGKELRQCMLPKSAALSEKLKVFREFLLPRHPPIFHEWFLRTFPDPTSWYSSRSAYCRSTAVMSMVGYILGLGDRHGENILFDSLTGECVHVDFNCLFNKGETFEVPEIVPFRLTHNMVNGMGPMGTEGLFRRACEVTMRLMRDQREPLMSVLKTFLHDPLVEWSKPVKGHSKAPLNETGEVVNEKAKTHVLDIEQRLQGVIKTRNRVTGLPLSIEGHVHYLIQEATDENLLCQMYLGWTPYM
Chain of ATR/ATRIP complex (Q8WXE1 whole entry partner): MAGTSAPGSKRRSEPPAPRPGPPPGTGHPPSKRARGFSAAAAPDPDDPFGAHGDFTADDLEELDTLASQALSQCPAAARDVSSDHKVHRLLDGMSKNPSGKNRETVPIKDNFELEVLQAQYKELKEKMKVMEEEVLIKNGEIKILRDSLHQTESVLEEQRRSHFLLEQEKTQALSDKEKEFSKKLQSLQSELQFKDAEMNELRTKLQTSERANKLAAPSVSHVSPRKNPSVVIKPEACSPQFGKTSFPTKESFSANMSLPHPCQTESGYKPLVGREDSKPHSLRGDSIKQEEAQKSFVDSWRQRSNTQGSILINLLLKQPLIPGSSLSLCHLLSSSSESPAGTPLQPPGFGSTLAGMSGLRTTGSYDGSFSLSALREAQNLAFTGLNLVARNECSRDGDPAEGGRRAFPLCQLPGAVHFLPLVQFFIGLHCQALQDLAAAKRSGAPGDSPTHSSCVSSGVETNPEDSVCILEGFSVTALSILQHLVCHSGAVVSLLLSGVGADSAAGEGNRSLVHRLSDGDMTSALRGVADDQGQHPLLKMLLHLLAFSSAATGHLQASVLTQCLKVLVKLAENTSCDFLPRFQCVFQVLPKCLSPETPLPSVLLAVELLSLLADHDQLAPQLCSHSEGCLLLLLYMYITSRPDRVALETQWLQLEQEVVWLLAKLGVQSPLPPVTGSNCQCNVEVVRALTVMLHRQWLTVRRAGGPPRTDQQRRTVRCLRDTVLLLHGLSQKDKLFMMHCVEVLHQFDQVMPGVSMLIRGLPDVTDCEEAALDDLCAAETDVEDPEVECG
Experimental: Human full-length FLAG-TEV-ATR and His6-ATRIP were co-expressed in HEK293 cells. The cell pellet (20 g) was harvested and lysed in 100 mL of lysis buffer (20 mM Tris-HCl pH 7.5 at room temperature, 137 mM NaCl, 10% glycerol, 1 mM DTT, 1% (v/v) Tween-20, 0.1% (v/v) NP-40, complete protease inhibitor cocktail tablets, phosphatase inhibitor cocktail tablets, 2 mM MgCl2, 0.2 mM EDTA, and 1 mM ATP). After sonication and centrifugation, the supernatant was incubated at 4° C. for 3 hours with 1 mL of anti-FLAG resin (Sigma catalog #A2220) that had been pre-equilibrated in buffer A (20 mM Tris-HCl pH 7.5 at room temperature, 137 mM NaCl, 10% glycerol, 1 mM DTT, 2 mM MgCl2, and 0.2 mM EDTA). The sample was loaded into a column, and then washed with buffer A three times. Protein was subsequently eluted with 2 ml of buffer B (buffer A+200 μg/ml 3×FLAG peptide).
The ability of new chemical matter to inhibit the ATR catalytic activity in this ATR/ATRIP complex was assessed using a Caliper-based assay. A 2x enzyme solution (i.e., 4 nM enzyme) was prepared using 1× Kinase Reaction Buffer (25 mM HEPES pH 8, 0.0055% Brij-35, 10 mM MnCl2, and 1 mM DTT). A 2x peptide solution was then prepared consisting of 10 uM FAM-labeled RAD17 peptide (GL Biochem, catalog #524315) in 1× Kinase Reaction Buffer supplemented with 2 μM ATP. 10 μL of the 2× enzyme solution was transferred to an assay plate containing 60 nL of test compound (from a 3× serial dilution) in 100% DMSO. Following a 30 minute incubation at 28° C., 10 μL of the 2× peptide solution was then transferred to the same assay plate. The reaction was allowed to incubate at 28° C. for 6 hours. After adding […] of stop buffer (100 mM HEPES pH 7.5, 0.015% Brij-35, 0.2% Coating-3 Reagent (PerkinElmer, catalog #PN760050), and 50 mM EDTA), data were collected on a Caliper instrument. Conversion values were converted to inhibition values via the following equation: % inhibition=(max−conversion)/(max−min)*100, whereby “max” corresponds to the DMSO control and “min” corresponds to the low control. IC50 values were calculated using the following equation in XLFit: Y=Bottom+(Top−Bottom)/1+(IC50/X)^HillSlope).

[2] = Homo sapiens, HT-29, HT-29 cells
[3] = read-out: ATR/ATRIP Enzyme IC50
[4] = estimated range, read-out: ATR/ATRIP Enzyme IC50 (estimated class)

Molecule | pIC50 [1, 2] | pIC50 (ATR/ATRIP complex; [3]) | pIC50 (ATR/ATRIP complex; [4]) | pIC50 ([1]; HT-29 cells)
Cc1cc2c(N3Cc4c(ncnc4C4CCN(S(C)(=O)=O)CC4)C[C@H]3C)ccnc2[nH]1 [Example 94, (R)-7-methyl-6-(2-methyl-1H-pyrrolo[2,3-b]pyridin-4-yl)-4-(1-(methylsulfonyl)piperidin-4-yl)-5,6,7,8-tetrahydro-pyrido[4,3-d]pyrimidine] | 7.01 | 7.29 |  | 
C[C@@H]1Cc2ncnc(C3CN(S(C)(=O)=O)C3)c2CN1c1cc(Cl)nc2[nH]ccc12 [Example 47, (R)-6-(6-Chloro-1H-pyrrolo[2,3-b]pyridin-4-yl)-7-methyl-4-(1-(methylsulfonyl)azetidin-3-yl)-5,6,7,8-tetrahydropyrido[4,3-d]pyrimidine] | 7.52 | 6.54 |  | 
C[C@@H]1Cc2ncnc(C3CCN(S(C)(=O)=O)CC3)c2CN1c1ncnc2[nH]ccc12 [Example 23, 1-methanesulfonyl-4-[(7R)-7-methyl-6-{7H-pyrrolo[2,3-d]pyrimidin-4-yl}-5H,6H,7H,8H-pyrido[4,3-d]pyrimidin-4-yl]piperidine] | 6.21 |  | 5.00 to 6.00 | 
COC(=O)[C@@H]1CCCN(c2ncnc3c2CN(c2cc(Cl)nc4[nH]ccc24)[C@H](C)C3)C1 [Example 62, Methyl (R)-1-((R)-6-(6-chloro-1H-pyrrolo[2,3-b]pyridin-4-yl)-7-methyl-5,6,7,8-tetrahydropyrido-[4,3-d]pyrimidin-4-yl)-piperidine-3-carboxylate] | 6.86 | 6.60 |  | 
C[C@@H]1Cc2ncnc(N3CCC(C#N)CC3)c2CN1c1ccnc2[nH]ccc12 [Example 82, (R)-1-(7-methyl-6-(1H-pyrrolo[2,3-b]pyridin-4-yl)-5,6,7,8-tetrahydro-pyrido[4,3-d]pyrimidin-4-yl)piperidine-4-carbonitrile] | 7.10 | 6.10 |  | 
CC1Cc2ncnc(C3CCN(S(C)(=O)=O)CC3)c2CN1c1ccnc2[nH]ccc12 (stereo not shown) [Example 4, 7-Methyl-4-(1-(methylsulfonyl)piperidin-4-yl)-6-(1H-pyrrolo[2,3-b]pyridin-4-yl)-5,6,7,8-tetrahydropyrido[4,3-d]pyrimidine bis(trifluoroacetate)] | 6.80 | 6.08 |  | 
CS(=O)(=O)N1CCC(c2ncnc3c2CN(c2ccnc4[nH]ccc24)CC3)CC1 [Example 2, 4-(1-(Methylsulfonyl)piperidin-4-yl)-6-(1H-pyrrolo[2,3-b]pyridin-4-yl)-5,6,7,8-tetrahydropyrido[4,3-d]pyrimidine bis(trifluoroacetate)] | 5.71 |  | 5.00 to 6.00 | 
C[C@@H]1Cc2ncnc(N3CC(C#N)C3)c2CN1c1ccnc2[nH]ccc12 [Example 81, (R)-1-(7-methyl-6-(1H-pyrrolo[2,3-b]pyridin-4-yl)-5,6,7,8-tetrahydro-pyrido[4,3-d]pyrimidin-4-yl)azetidine-3-carbonitrile] | 7.42 | 6.61 |  | 
C[C@@H]1Cc2ncnc(N3CC[C@@H](S(C)(=O)=O)C3)c2CN1c1cc(Cl)nc2[nH]ccc12 [Example 87, (R)-6-(6-chloro-1H-pyrrolo[2,3-b]pyridin-4-yl)-7-methyl-4-((R)-3-(methylsulfonyl)-pyrrolidin-1-yl)-5,6,7,8-tetrahydropyrido[4,3-d]-pyrimidine] | 7.70 | 6.63 |  | 
C[C@@H]1Cc2ncnc(C3CCN(S(=O)(=O)C4CC4)CC3)c2CN1c1ccnc2[nH]ccc12 [Example 80, (R)-4-(1-(cyclopropyl-sulfonyl)piperidin-4-yl)-7-methyl-6-(1H-pyrrolo[2,3-b]pyridin-4-yl)-5,6,7,8-tetrahydro-pyrido[4,3-d]pyrimidine] | 6.88 | 5.96 |  | 
N-((1R,5S,8R)-3-((R)-7- methyl-6-(1H-pyrrolo- [2,3-b]pyridin-4-yl)- 5,6,7,8-tetrahydropyrido- [4,3-d]pyrimidin-4-yl)-3- azabicyclo[3.2.1]octan-8- yl)methanesulfonamide [Example 74] |  | 6.55 |  | 7.51

Reference: US10421765B2, “Tetrahydropyrido[4,3-d]pyrimidine inhibitors of ATR kinase” (Board of Regents, The University of Texas System, priority 2017, dated 2019)
